Measurements: US9067918B2, “Crystalline forms of 2-(2-methylamino-pyrimidin-4-yl)-1H-indole-5-carboxylic acid [ (S)-1-carbamoyl-2-(phenyl-pyrimidin-2-yl-amino)-ethyl ]-amide” (Sanofi, priority 2011, dated 2015)

Legend:
Assay type in all cases: physicochemical
[1] = Maturation experiments (slurry conversion), relative stability of crystalline forms
Experimental: By maturation experiments (slurry conversion) at 20° C. the relative stability of polymorphs 1 and 2 and hydrate 1 was investigated.
A polymorph mixture of 81 mg (Mixture of Polymorph 1 and Polymorph 2), 83 mg of Polymorph 1 and 60 mg of hydrate 1 was prepared. The mixture was subjected to XRPD analysis to confirm the presence of all three polymorphs and then distributed into five capillaries. These samples were kept in suspension at 20° C. for five days. After X-ray powder diffraction measurement of the suspensions these were dried over night at 40° C. and <100 mbar and again subjected to X-ray diffraction. Maturation experiments (a) to (e) were performed under the specified conditions, starting with the polymorph mixture described above.

[2] = Determination of solubility in a mixture of acetone and water (4:1, by volume); settings: acetone/water 4:1 by volume
Experimental: For the determination of the solubility in a mixture of acetone and water (4:1, by volume), samples of 0.5 mg to 50 mg of the test substances were suspended in a defined amount of the solvent (800 mg to 1200 mg) in screw cap vials with a magnetic stirring bar, which were placed in a temperature-controlled multiple stirring device equipped for transmission measurement (Avantium Crystal 16). With stirring at 700 rpm, the vials were cooled from room temperature to 0° C. and then heated to 60° C. with a heating rate of 3° C./h, kept at 60° C. for 2 h and cooled again to 0° C. with a cooling rate of 3° C./h. By means of transmission measurement it was determined whether the sample was dissolved (100% transmission), or crystals were present. For polymorph 1, polymorph 2, hydrate 1 and hydrate 2 of compound I the following solubilities in a mixture of acetone and water (4:1, by volume) were determined.

Thermogravimetry (TG) = settings: for TG weight loss: until the melting point
Experimental: Thermogravimetric analyses were performed with a METTLER TGA851e instrument. 100 μl Al-crucibles with sealed lid and hole were used and the measurements performed in a nitrogen gas flow of 50 ml/min. The measured data were evaluated with the software STARe V8.10. TG measurements with infra-red (IR) spectroscopic analysis of volatiles were performed with a METTLER TGA851e instrument as described, which was coupled to a Thermo-Nicolet 380 FT-IR spectrometer equipped with a cell for gas phase measurements. The measured IR spectra were evaluated using the software OMNIC V.7.3. In the TG analyses of polymorph 1 and polymorph 2 of compound I until the melting point, insignificant weight losses of 0.2% and 0.7%, respectively, were observed. In the TG analysis of hydrate 1 of compound I, a gradual weight loss of 6.4% was observed between room temperature and 120° C. […] The observed weight loss corresponds to about 1.9 mol of water per mol of 2-(2-methylamino-pyrimidin-4-yl)-1H-indole-5-carboxylic acid [(S)-1-carbamoyl-2-(phenyl-pyrimidin-2-yl-amino)-ethyl]-amide. In the TG FT-IR analysis of hydrate 2 of compound I, a weight loss of 17-18% of water mainly in two steps was observed between room temperature and 140° C., which corresponds to about 6 mol of water per mol of 2-(2-methylamino-pyrimidin-4-yl)-1H-indole-5-carboxylic acid [(S)-1-carbamoyl-2-(phenyl-pyrimidin-2-yl-amino)-ethyl]-amide.

Solubility (qualitative) = settings: qualitative statement; for solubility compared with polymorph 1: solvent not stated
[3] = Dynamic vapor sorption (DVS), determination of hygroscopicity; settings: for hygroscopicity, water uptake: at a high relative humidity of 80%; for weight increase in sorption step: 25° C.
Experimental: For the determination of the hygroscopicity, moisture sorption/desorption isotherms were recorded on a Surface Measurement Systems DVS-1 instrument. […] The data were evaluated with the software DVSWin V.2.15. In the DVS analysis of polymorph 1 and polymorph 2 of compound I, in the sorption steps of the two cycles the following weight increases were observed.

[4] = relative humidity 40%, first value (cycle 1)
[5] = relative humidity 40%, second value (cycle 2)
[6] = relative humidity 60%, first value (cycle 1)
[7] = relative humidity 60%, second value (cycle 2)
[8] = relative humidity 80%, first value (cycle 1)
[9] = relative humidity 80%, second value (cycle 2)
[10] = relative humidity 95%, first value (cycle 1)
[11] = relative humidity 95%, second value (cycle 2)

Row | TG weight loss (Thermogravimetry (TG)) [%] | hygroscopicity, water uptake [3] | weight increase in sorption step [3, 4] | weight increase in sorption step [3, 5] | weight increase in sorption step [3, 6] | weight increase in sorption step [3, 7] | weight increase in sorption step [3, 8] | weight increase in sorption step [3, 9] | weight increase in sorption step [3, 10] [%] | weight increase in sorption step [3, 11] [%] | solubility compared with polymorph 1 (Solubility (qualitative)) | Compound | further results
1 | 0.2 | about 0.9% | 0.5%/0.5% | 0.5%/0.5% | 0.6%/0.6% | 0.6%/0.6% | 0.9%/0.9% | 0.9%/0.9% | 1.3 | 1.4 | – | CNc1nccc(-c2cc3cc(C(=O)N[C@@H](CN(c4ccccc4)c4ncccn4)C(N)=O)ccc3[nH]2)n1 [Polymorph 1, 2-(2-methylamino-pyrimidin-4-yl)-1H-indole-5-carboxylic acid [(S)-1-carbamoyl-2-(phenyl-pyrimidin-2-yl-amino)-ethyl]-amide] | thermodynamic stability among the polymorphs ([1]; at temperatures above about 20° C., confirmed in phase conversion experiments): thermodynamically most stable polymorph; thermodynamic stability among polymorphs 1, 2 and hydrate 1 ([1]; maturation experiments (a) to (e) at 20° C.): thermodynamically most stable; Solubility [g in 100 g of solvent] ([2]; 36.9° C.): 0.43 g in 100 g of solvent; Solubility [g in 100 g of solvent] ([2]; 44.7° C.): 0.50 g in 100 g of solvent; Solubility [g in 100 g of solvent] ([2]; 60.0° C.): 0.85 g in 100 g of solvent; solubility in water (Solubility (qualitative)): low solubility in water
2 | – | – | – | – | – | – | – | – | – | – | higher solubility than polymorph 1 | CNc1nccc(-c2cc3cc(C(=O)N[C@@H](CN(c4ccccc4)c4ncccn4)C(N)=O)ccc3[nH]2)n1 [Hydrate 1, 2-(2-methylamino-pyrimidin-4-yl)-1H-indole-5-carboxylic acid [(S)-1-carbamoyl-2-(phenyl-pyrimidin-2-yl-amino)-ethyl]-amide dihydrate] | Solubility [g in 100 g of solvent] ([2]; 38.6° C.): 2.11 g in 100 g of solvent; Solubility [g in 100 g of solvent] ([2]; 49.7° C.): 3.39 g in 100 g of solvent; Solubility [g in 100 g of solvent] ([2]; 57.4° C.): 5.04 g in 100 g of solvent; TG weight loss (water) (Thermogravimetry (TG); between room temperature and 120° C.): 6.4%; hygroscopicity ([3]; qualitative statement): low hygroscopicity
3 | – | – | – | – | – | – | – | – | – | – | – | CNc1nccc(-c2cc3cc(C(=O)N[C@@H](CN(c4ccccc4)c4ncccn4)C(N)=O)ccc3[nH]2)n1 [Hydrate 2, 2-(2-methylamino-pyrimidin-4-yl)-1H-indole-5-carboxylic acid [(S)-1-carbamoyl-2-(phenyl-pyrimidin-2-yl-amino)-ethyl]-amide hexahydrate] | Solubility [g in 100 g of solvent] ([2]; 36.8° C.): 0.50 g in 100 g of solvent; Solubility [g in 100 g of solvent] ([2]; 46.1° C.): 1.02 g in 100 g of solvent; Solubility [g in 100 g of solvent] ([2]; 55.9° C.): 2.61 g in 100 g of solvent; TG weight loss (water) (Thermogravimetry (TG); between room temperature and 140° C., mainly in two steps): 17-18%
4 | 0.7 | about 0.4% | 0.2% | 0.0% | 0.3% | 0.1% | 0.4% | 0.3% | 0.8 | 0.6 | higher solubility than polymorph 1 | CNc1nccc(-c2cc3cc(C(=O)N[C@@H](CN(c4ccccc4)c4ncccn4)C(N)=O)ccc3[nH]2)n1 [Polymorph 2, 2-(2-methylamino-pyrimidin-4-yl)-1H-indole-5-carboxylic acid [(S)-1-carbamoyl-2-(phenyl-pyrimidin-2-yl-amino)-ethyl]-amide] | Solubility [g in 100 g of solvent] ([2]; 46.0° C.): 1.02 g in 100 g of solvent; Solubility [g in 100 g of solvent] ([2]; 57.5° C.): 2.48 g in 100 g of solvent
